Measurements as given in PMC6667648 (Frontiers in Microbiology, 2019).
In brackets after ≈: the same amount, converted by molar mass. Like-named read-outs stand apart in the source and are kept apart here.

Legend:
P. aeruginosa ATCC 27853 [1] = assay: Antibiotic resistance profiling, 30 serial passages; type: cell-based, Pseudomonas aeruginosa; conditions: for MIC: Pseudomonas aeruginosa
Description: (§1) The development of resistance was confirmed if the microorganism started growing at continuously higher concentrations. […] Evaluations were done in duplicate.

S. aureus ATCC 29213 = assay: microbe, parasite or virus in culture; conditions: for MIC: Staphylococcus aureus
Description: as §1

A. baumannii 6043 = assay: microbe, parasite or virus in culture; type: cell-based, Acinetobacter baumannii; conditions: A. baumannii 6043, 24-h incubation, mean of 3 replicates from 2 independent experiments
Protocol: (§2) Strains were obtained from American Type Culture Collection (ATCC, Manassas, VA) or the clinical isolate collection at Trideum Biosciences (Frederick, MD, USA). Bioluminescence strains of P. aeruginosa 19660, transfected with the Xen5 luciferase gene, and S. aureus ATCC® 49525™ (Wright), transfected with the Xen36 luciferase gene, were obtained from Perkin Elmer (Hopkinton, MA).
(§3) A single colony was aseptically picked from an agar overlay and released in 25–30 mL of pre-warmed trypticase soy broth in a culture flask. Each culture was incubated overnight in a 37°C incubator. […] Pathogen growth was measured by absorbance at 600 nm. Four replicas were included for each test agent concentration. […]

A. baumannii 6838 = assay: microbe, parasite or virus in culture; type: cell-based, Acinetobacter baumannii; conditions: A. baumannii 6838, 24-h incubation, mean of 3 replicates from 2 independent experiments
Protocol: as §2, §3

A. baumannii ATCC 17978 = assay: microbe, parasite or virus in culture; type: cell-based, Acinetobacter baumannii; conditions: Acinetobacter baumannii, ATCC17978; A. baumannii ATCC 17978; 24-h incubation; mean of 3 replicates from 2 independent experiments; read-out: Minimum Inhibitory Concentration (MIC)
Protocol: as §2, §3

K. pneumonia 6066 = assay: microbe, parasite or virus in culture; type: cell-based, Klebsiella pneumoniae; conditions: K. pneumonia 6066, 24-h incubation, mean of 3 replicates from 2 independent experiments
Protocol: as §2, §3

K. pneumonia 6069 = assay: microbe, parasite or virus in culture; type: cell-based, Klebsiella pneumoniae; conditions: K. pneumonia 6069, 24-h incubation, mean of 3 replicates from 2 independent experiments
Protocol: as §2, §3

K. pneumonia ATCC 10031 = assay: microbe, parasite or virus in culture; type: cell-based, Klebsiella pneumoniae; conditions: K. pneumonia ATCC 10031, 24-h incubation, mean of 3 replicates from 2 independent experiments
Protocol: as §2, §3

P. aeruginosa 6186 = assay: microbe, parasite or virus in culture; type: cell-based, Pseudomonas aeruginosa; conditions: P. aeruginosa 6186, 24-h incubation, mean of 3 replicates from 2 independent experiments
Protocol: as §2, §3

P. aeruginosa ATCC 19660 = assay: microbe, parasite or virus in culture; type: cell-based, Pseudomonas aeruginosa; conditions: P. aeruginosa ATCC 19660, 24-h incubation, mean of 3 replicates from 2 independent experiments
Protocol: as §2, §3

P. aeruginosa ATCC 27853 [2] = assay: microbe, parasite or virus in culture; type: cell-based, Pseudomonas aeruginosa; conditions: P. aeruginosa ATCC 27853, 24-h incubation, mean of 3 replicates from 2 independent experiments
Protocol: as §2, §3

MRSA 6313 = assay: microbe, parasite or virus in culture; type: cell-based, Staphylococcus aureus; conditions: MRSA 6313, 24-h incubation, mean of 3 replicates from 2 independent experiments
Protocol: as §2, §3

MRSA 6381 = assay: microbe, parasite or virus in culture; type: cell-based, Staphylococcus aureus; conditions: MRSA 6381, 24-h incubation, mean of 3 replicates from 2 independent experiments
Protocol: as §2, §3

MRSA ATCC 33592 = assay: microbe, parasite or virus in culture; type: cell-based, Staphylococcus aureus; conditions: MRSA ATCC 33592, 24-h incubation, mean of 3 replicates from 2 independent experiments
Protocol: as §2, §3

S. aureus 6061 = assay: microbe, parasite or virus in culture; type: cell-based, Staphylococcus aureus; conditions: S. aureus 6061, 24-h incubation, mean of 3 replicates from 2 independent experiments
Protocol: as §2, §3

S. aureus B-767 = assay: microbe, parasite or virus in culture; type: cell-based, Staphylococcus aureus; conditions: S. aureus B-767, 24-h incubation, mean of 3 replicates from 2 independent experiments
Protocol: as §2, §3

S. epidermis ATCC 51625 = assay: microbe, parasite or virus in culture; type: cell-based, S. epidermidis; conditions: S. epidermis ATCC 51625, 24-h incubation, mean of 3 replicates from 2 independent experiments
Protocol: as §2, §3

E. cloacae 6053 = assay: microbe, parasite or virus in culture; type: cell-based; conditions: E. cloacae 6053, 24-h incubation, mean of 3 replicates from 2 independent experiments
Protocol: as §2, §3

E. cloacae 6054 = assay: microbe, parasite or virus in culture; type: cell-based; conditions: E. cloacae 6054, 24-h incubation, mean of 3 replicates from 2 independent experiments
Protocol: as §2, §3

[3] = test system: bioluminescent P. aeruginosa 19660; assay: Bioluminescence time-kill assay; type: cell-based, Pseudomonas aeruginosa; conditions: antibiotics after 30 min incubation, triplicates, two independent experiments
Protocol: as §2
(§4) Non-invasive real-time evaluation of viability, mammalian, and bacterial cells, was performed using bioluminescent human keratinocytes (HaCaT, AddexBio, San Diego, CA) and murine L929 fibroblast cells (ATCC, Manassas, VA). The bioluminescent variants were constructed by transfection with a luciferase gene (RediFect Red-Fluc-Puromycin, Catalog #CL596002) (Hamblin et al., [2003]). […] Each concentration was performed in triplicate. Bioluminescence imaging was performed at pre-specified times (0, 15, and 30 min and 1, 3, 5, 8, and 24 h) and compared to concurrently run vehicle-controls. The 96-well plate was positioned on the stage (12.5-cm field of view) within the in vivo Imaging System (IVIS) imaging system (Caliper Life Sciences, Inc., Hopkinton, MA, USA), with an open emission filter, binning of 4, and f-stop 1, and a 1-min exposure time. The resultant photons emitted from the live cells were quantified using Living Image® software (version 4.3, Caliper Life Sciences, Inc.). […]

[4] = test system: bioluminescent S. aureus 49525; assay: Bioluminescence time-kill assay; type: cell-based, Staphylococcus aureus; conditions: antibiotics after 30 min incubation, triplicates, two independent experiments
Protocol: as §2, §4

[5] = Acinetobacter baumannii, read-out: Minimum Inhibitory Concentration (MIC)
[6] = Klebsiella pneumoniae, read-out: Minimum Inhibitory Concentration (MIC)
[7] = Staphylococcus aureus, read-out: Minimum Inhibitory Concentration (MIC)
[8] = Enterobacter cloacae, read-out: Minimum Inhibitory Concentration (MIC)

With CNC(C)C1CCC(N)C(OC2C(N)CC(N)C(OC3OCC(C)(O)C(NC)C3O)C2O)O1 (centres unmarked) [gentamicin] the “Fold increase in MIC value, Passage #30 vs #0” value (P. aeruginosa ATCC 27853 [1]; P. aeruginosa ATCC 27853) was 4,096 fold, the MIC (P. aeruginosa ATCC 27853 [1]; ATCC27853, read-out: MIC during Passage #0 and Passage #1) was 0.125 µg/mL (≈ 0.262 µM) and the MIC (P. aeruginosa ATCC 27853 [1]; ATCC27853, read-out: MIC during Passage #30) was 512 µg/mL (≈ 1070 µM).

With CCC[C@@H]1C[C@@H](C(=O)N[C@@H]([C@H]2O[C@H](SC)[C@H](O)[C@@H](O)[C@H]2O)[C@H](C)Cl)N(C)C1 [clindamycin] the “Fold increase in MIC value, Passage #30 vs #0” value (S. aureus ATCC 29213; S. aureus ATCC 29213) was 256 fold, the MIC (S. aureus ATCC 29213; ATCC29213, read-out: MIC on Passage #0 and Passage #1) was 0.125 µg/mL (≈ 0.294 µM) and the MIC (S. aureus ATCC 29213; ATCC29213, read-out: MIC on Passage #30) was 32 µg/mL (≈ 75.3 µM).

NC[C@H]1O[C@H](O[C@H]2[C@H](O)[C@@H](O[C@H]3O[C@H](CO)[C@@H](O)[C@H](N)[C@H]3O)[C@H](N)C[C@@H]2N)[C@H](N)C[C@@H]1O [Tobramycin, tobramycin] was tested, and the MIC (A. baumannii 6043; [5]) was 68.5 µM (≈ 32 µg/mL), the MIC (A. baumannii 6838; [5]) was 4.3 µM (≈ 2.01 µg/mL) and the MIC (A. baumannii ATCC 17978) was 4.3 µM (≈ 2.01 µg/mL). The MIC (K. pneumonia 6066; [6]) was 8.6 µM (≈ 4.02 µg/mL), the MIC (K. pneumonia 6069; [6]) was 4.3 µM (≈ 2.01 µg/mL) and the MIC (K. pneumonia ATCC 10031; Klebsiella pneumoniae, ATCC10031, read-out: Minimum Inhibitory Concentration (MIC)) was 4.3 µM (≈ 2.01 µg/mL). For the same compound, the MIC (P. aeruginosa 6186; Pseudomonas aeruginosa, read-out: Minimum Inhibitory Concentration (MIC)) was over 274 µM, the MIC (P. aeruginosa ATCC 19660; Pseudomonas aeruginosa, ATCC19660, read-out: Minimum Inhibitory Concentration (MIC)) was over 274 µM and the MIC (P. aeruginosa ATCC 27853 [2]; Pseudomonas aeruginosa, ATCC27853, read-out: Minimum Inhibitory Concentration (MIC)) was 4.3 µM (≈ 2.01 µg/mL). For the same compound, the MIC (MRSA 6313; [7]) was over 274 µM, the MIC (MRSA 6381; [7]) was 274 µM (≈ 128 µg/mL) and the MIC (MRSA ATCC 33592; [7]) was 137 µM (≈ 64.1 µg/mL). The MIC (S. aureus 6061; [7]) was 8.6 µM (≈ 4.02 µg/mL), the MIC (S. aureus B-767; Staphylococcus aureus, B767, read-out: Minimum Inhibitory Concentration (MIC)) was over 274 µM and the MIC (S. epidermis ATCC 51625; Staphylococcus epidermidis, ATCC51625, read-out: Minimum Inhibitory Concentration (MIC)) was 4.3 µM (≈ 2.01 µg/mL). For the same compound, the MIC (E. cloacae 6053; [8]) was 68.5 µM (≈ 32 µg/mL), the MIC (E. cloacae 6054; [8]) was 137 µM (≈ 64.1 µg/mL) and the “Bactericidal activity in time-kill assay” value [3] was “no trace of antibacterial activity”. The “Bactericidal activity in time-kill assay” value [4] was “no trace of antibacterial activity”.

For CC[C@H](C)[C@H](NC(=O)[C@H](CCCCN)NC(=O)[C@H](CCC(=O)O)NC(=O)[C@H](CCCCN)NC(=O)[C@H](CO)NC(=O)[C@H](CCCCN)NC(=O)[C@H](CCCNC(=N)N)NC(=O)[C@H](Cc1ccccc1)NC(=O)[C@H](Cc1ccccc1)NC(=O)[C@H](CC(=O)O)NC(=O)CNC(=O)[C@H](CC(C)C)NC(=O)[C@@H](N)CC(C)C)C(=O)NCC(=O)N[C@@H](CCCCN)C(=O)N[C@@H](CCC(=O)O)C(=O)N[C@@H](Cc1ccccc1)C(=O)N[C@@H](CCCCN)C(=O)N[C@@H](CCCNC(=N)N)C(=O)N[C@H](C(=O)N[C@H](C(=O)N[C@@H](CCC(N)=O)C(=O)N[C@@H](CCCNC(=N)N)C(=O)N[C@H](C(=O)N[C@@H](CCCCN)C(=O)N[C@@H](CC(=O)O)C(=O)N[C@@H](Cc1ccccc1)C(=O)N[C@@H](CC(C)C)C(=O)N[C@@H](CCCNC(=N)N)C(=O)N[C@@H](CC(N)=O)C(=O)N[C@@H](CC(C)C)C(=O)N[C@H](C(=O)N1CCC[C@H]1C(=O)N[C@@H](CCCNC(=N)N)C(=O)N[C@H](C(=O)N[C@@H](CCC(=O)O)C(=O)N[C@@H](CO)C(=O)O)[C@@H](C)O)C(C)C)[C@@H](C)CC)C(C)C)[C@@H](C)CC [LL-37], the “Minimum Inhibitory Concentration (MIC)” value (A. baumannii 6043) was 14.2 [64] μM, the “Minimum Inhibitory Concentration (MIC)” value (A. baumannii 6838) was >28.5 [128] μM and the “Minimum Inhibitory Concentration (MIC)” value (K. pneumonia 6066) was >28.5 [128] μM. The “Minimum Inhibitory Concentration (MIC)” value (K. pneumonia 6069) was >28.5 [128] μM, the “Minimum Inhibitory Concentration (MIC)” value (K. pneumonia ATCC 10031) was >28.5 [128] μM and the “Minimum Inhibitory Concentration (MIC)” value (P. aeruginosa 6186) was >28.5 [128] μM. For the same compound, the “Minimum Inhibitory Concentration (MIC)” value (P. aeruginosa ATCC 19660) was 28.5 [128] μM, the “Minimum Inhibitory Concentration (MIC)” value (P. aeruginosa ATCC 27853 [2]) was 28.5 [128] μM and the “Minimum Inhibitory Concentration (MIC)” value (MRSA 6313) was >28.5 [128] μM. For the same compound, the “Minimum Inhibitory Concentration (MIC)” value (MRSA 6381) was >28.5 [128] μM, the “Minimum Inhibitory Concentration (MIC)” value (MRSA ATCC 33592) was >28.5 [128] μM and the “Minimum Inhibitory Concentration (MIC)” value (S. aureus 6061) was >28.5 [128] μM. The “Minimum Inhibitory Concentration (MIC)” value (S. aureus B-767) was >28.5 [128] μM, the “Minimum Inhibitory Concentration (MIC)” value (S. epidermis ATCC 51625) was >28.5 [128] μM and the “Minimum Inhibitory Concentration (MIC)” value (E. cloacae 6053) was >28.5 [128] μM. For the same compound, the “Minimum Inhibitory Concentration (MIC)” value (E. cloacae 6054) was >28.5 [128] μM.
